The first assay addresses T1, Progesterone receptor (Bos taurus, UniProt Q690N0).
T1 sequence (Q690N0 whole entry): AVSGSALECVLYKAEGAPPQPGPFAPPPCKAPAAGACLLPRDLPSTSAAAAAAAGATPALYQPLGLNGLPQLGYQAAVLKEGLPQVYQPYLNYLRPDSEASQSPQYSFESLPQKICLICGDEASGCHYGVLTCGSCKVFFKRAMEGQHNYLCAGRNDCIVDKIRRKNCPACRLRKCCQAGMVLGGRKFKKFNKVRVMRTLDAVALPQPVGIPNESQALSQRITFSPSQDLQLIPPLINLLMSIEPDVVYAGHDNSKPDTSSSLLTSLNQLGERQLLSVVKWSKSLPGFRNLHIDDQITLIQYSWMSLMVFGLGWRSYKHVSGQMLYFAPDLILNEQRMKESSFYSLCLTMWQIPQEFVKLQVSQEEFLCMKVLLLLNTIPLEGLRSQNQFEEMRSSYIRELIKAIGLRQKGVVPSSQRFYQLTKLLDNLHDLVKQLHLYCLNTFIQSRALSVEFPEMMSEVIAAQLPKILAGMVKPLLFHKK
In words: DRUGMATRIX: Progesterone radioligand binding (ligand: [3H] R-5020). Format: tissue-based, Uterus. The settings on record: Not Active = under 50% inhibition at 10 µM.
Sequence of Mitogen-activated protein kinase 14 (Q16539 whole entry): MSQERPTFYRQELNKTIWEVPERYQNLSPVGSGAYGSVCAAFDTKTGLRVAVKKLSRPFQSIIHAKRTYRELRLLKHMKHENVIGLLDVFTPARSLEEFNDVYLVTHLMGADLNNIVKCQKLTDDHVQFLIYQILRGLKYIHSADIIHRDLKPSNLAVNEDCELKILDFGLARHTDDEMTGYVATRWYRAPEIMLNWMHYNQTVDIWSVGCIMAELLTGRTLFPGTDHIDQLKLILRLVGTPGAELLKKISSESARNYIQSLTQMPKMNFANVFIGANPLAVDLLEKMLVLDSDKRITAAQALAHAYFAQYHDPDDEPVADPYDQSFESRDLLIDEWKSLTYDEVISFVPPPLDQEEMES
Sequence of Nitric oxide synthase 1 (P29476 whole entry): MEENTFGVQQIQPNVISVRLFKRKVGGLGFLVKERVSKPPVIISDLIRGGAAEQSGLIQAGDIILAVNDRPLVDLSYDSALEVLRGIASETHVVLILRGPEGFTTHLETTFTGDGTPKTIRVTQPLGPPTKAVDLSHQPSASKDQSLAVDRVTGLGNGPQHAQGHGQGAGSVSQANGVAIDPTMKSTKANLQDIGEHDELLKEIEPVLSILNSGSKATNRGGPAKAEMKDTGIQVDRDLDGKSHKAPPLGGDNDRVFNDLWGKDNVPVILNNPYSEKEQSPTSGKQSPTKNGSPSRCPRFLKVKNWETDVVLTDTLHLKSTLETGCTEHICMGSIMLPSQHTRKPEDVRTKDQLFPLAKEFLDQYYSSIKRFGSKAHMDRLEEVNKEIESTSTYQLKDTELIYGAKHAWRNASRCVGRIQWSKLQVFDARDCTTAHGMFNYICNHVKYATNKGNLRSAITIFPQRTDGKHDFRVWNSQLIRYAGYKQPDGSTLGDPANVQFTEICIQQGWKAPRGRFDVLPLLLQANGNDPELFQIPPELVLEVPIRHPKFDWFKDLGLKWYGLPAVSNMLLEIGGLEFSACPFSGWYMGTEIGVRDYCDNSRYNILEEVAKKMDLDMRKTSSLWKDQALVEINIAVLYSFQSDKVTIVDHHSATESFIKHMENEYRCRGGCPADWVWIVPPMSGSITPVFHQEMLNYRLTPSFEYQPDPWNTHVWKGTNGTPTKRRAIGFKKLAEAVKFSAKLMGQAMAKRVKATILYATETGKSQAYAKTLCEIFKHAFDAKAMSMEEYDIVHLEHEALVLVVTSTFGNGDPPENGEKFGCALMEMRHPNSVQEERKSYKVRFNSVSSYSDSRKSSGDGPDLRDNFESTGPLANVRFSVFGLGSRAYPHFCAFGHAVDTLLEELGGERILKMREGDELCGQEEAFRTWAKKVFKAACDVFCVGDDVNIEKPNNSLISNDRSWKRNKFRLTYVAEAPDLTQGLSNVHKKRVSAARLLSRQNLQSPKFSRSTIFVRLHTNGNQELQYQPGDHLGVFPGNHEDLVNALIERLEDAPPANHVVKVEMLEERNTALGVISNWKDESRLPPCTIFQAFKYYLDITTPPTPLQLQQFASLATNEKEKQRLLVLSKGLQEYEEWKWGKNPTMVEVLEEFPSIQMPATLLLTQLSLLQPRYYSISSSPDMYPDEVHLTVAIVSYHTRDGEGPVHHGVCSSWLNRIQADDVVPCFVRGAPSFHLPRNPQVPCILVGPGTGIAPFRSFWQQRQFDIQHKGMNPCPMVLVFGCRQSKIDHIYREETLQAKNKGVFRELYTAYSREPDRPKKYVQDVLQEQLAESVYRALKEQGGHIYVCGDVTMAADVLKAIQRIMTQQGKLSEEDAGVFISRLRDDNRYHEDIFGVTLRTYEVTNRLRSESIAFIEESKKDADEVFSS
Sequence of Vascular endothelial growth factor receptor 1 (P17948 whole entry): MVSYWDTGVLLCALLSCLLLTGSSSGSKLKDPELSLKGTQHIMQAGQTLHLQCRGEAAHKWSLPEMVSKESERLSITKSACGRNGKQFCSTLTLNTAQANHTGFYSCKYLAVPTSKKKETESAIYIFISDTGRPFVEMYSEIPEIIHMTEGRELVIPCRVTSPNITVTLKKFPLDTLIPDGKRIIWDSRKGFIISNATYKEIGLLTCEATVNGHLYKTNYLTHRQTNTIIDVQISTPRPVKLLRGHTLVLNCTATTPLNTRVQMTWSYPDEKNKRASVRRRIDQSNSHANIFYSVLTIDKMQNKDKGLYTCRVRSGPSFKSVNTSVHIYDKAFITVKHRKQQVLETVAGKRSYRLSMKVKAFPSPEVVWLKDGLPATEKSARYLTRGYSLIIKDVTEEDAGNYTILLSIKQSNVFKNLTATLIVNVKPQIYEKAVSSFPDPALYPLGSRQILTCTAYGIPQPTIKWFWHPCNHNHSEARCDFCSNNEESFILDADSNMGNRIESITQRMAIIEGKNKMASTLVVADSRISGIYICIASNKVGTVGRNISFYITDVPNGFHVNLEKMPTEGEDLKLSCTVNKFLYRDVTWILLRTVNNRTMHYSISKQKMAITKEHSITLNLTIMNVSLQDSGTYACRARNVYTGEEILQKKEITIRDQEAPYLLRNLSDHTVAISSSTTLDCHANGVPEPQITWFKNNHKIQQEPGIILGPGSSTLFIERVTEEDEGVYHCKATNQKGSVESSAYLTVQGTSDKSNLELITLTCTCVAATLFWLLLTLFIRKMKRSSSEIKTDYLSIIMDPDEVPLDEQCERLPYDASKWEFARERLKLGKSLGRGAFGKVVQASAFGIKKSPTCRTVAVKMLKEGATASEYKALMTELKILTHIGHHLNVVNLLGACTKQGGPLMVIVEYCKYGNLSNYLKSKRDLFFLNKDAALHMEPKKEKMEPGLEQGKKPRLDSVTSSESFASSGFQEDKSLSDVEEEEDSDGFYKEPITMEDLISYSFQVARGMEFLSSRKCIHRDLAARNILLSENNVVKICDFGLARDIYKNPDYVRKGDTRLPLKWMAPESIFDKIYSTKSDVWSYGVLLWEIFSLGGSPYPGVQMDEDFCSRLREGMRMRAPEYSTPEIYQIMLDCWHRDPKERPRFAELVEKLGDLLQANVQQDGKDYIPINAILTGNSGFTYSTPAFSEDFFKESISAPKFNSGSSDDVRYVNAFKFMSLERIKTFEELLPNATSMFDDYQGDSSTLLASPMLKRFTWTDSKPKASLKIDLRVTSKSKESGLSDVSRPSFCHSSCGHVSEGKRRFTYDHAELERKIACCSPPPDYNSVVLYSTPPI
Take `COCc1c(C(C)C)nc(C(C)C)c(/C=C/[C@@H](O)C[C@@H](O)CC(=O)O)c1-c1ccc(F)cc1` [CERIVASTATIN]: the IC50 entry is recorded as “Not Active”.
As to CISPLATIN, the half-maximal inhibitory concentration (IC50) entry is reported as “Not Active” and the Ki result is “Not Active”.
Turning to `CN1CCC[C@H]1c1cccnc1` [NICOTINE], the IC50 result is listed as “Not Active”.
Consider `Oc1c(Cl)cc(Cl)cc1Sc1cc(Cl)cc(Cl)c1O` [BITHIONOL], for which the IC50 entry is given as “Not Active”.

The target in another assay is Matrix metalloproteinase-9 (Homo sapiens, UniProt P14780). It counts as cell-based.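 Further: inhibition of isolated MMP-9 enzyme activity toward a synthetic peptide substrate, from the DrugMatrix protease screening panel; in other assays of this panel Not Active means under 50% inhibition at 10 µM.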
Sequence of Matrix metalloproteinase-9 (P14780 whole entry): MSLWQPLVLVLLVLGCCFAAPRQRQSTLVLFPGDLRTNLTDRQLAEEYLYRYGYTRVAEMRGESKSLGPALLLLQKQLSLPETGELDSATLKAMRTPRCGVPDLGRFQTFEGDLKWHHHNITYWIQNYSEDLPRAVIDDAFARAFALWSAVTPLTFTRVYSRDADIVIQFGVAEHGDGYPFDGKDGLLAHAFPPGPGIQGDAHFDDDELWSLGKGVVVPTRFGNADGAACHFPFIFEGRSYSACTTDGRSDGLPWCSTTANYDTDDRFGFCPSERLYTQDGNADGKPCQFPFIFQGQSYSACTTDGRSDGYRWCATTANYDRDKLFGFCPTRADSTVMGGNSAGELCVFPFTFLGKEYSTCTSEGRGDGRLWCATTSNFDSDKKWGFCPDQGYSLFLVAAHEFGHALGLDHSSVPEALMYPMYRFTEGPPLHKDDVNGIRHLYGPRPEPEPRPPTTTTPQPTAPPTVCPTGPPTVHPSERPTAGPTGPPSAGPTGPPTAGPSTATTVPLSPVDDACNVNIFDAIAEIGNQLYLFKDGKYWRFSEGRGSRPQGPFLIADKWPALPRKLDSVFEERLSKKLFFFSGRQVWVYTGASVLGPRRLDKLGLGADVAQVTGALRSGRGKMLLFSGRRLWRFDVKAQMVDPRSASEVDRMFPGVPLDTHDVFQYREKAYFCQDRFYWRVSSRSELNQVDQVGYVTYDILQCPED
Settings: not given
For the compound `COCc1c(C(C)C)nc(C(C)C)c(/C=C/[C@@H](O)C[C@@H](O)CC(=O)O)c1-c1ccc(F)cc1` [CERIVASTATIN], the IC50 result was “Not Active”.
On to CISPLATIN, for which the IC50 result is “Not Active” and the Ki entry is “Not Active”.
For the compound `CN1CCC[C@H]1c1cccnc1` [NICOTINE], the IC50 entry is given as “Not Active”.
On the same count and under the same terms, as for `Oc1c(Cl)cc(Cl)cc1Sc1cc(Cl)cc(Cl)c1O` [BITHIONOL], the entry is “Not Active”.

Another assay has as its target Nitric oxide synthase 1 (Rattus norvegicus, UniProt P29476). It counts as tissue-based, Cerebellum. Further: in other assays of this panel Not Active means under 50% inhibition at 10 µM.
Settings: not given
For the compound `COCc1c(C(C)C)nc(C(C)C)c(/C=C/[C@@H](O)C[C@@H](O)CC(=O)O)c1-c1ccc(F)cc1` [CERIVASTATIN], the IC50 result was “Not Active”.
Turning to CISPLATIN, the IC50 entry is “Not Active” and the Ki entry is given as “Not Active”.
`CN1CCC[C@H]1c1cccnc1` [NICOTINE]: the IC50 entry is recorded as “Not Active”.
On to `Oc1c(Cl)cc(Cl)cc1Sc1cc(Cl)cc(Cl)c1O` [BITHIONOL], for which the IC50 result is “Not Active”.

Another assay deals with Protein kinase C alpha type (Homo sapiens, UniProt P17252). Format: cell-based. The settings on record: sf9.
For `COCc1c(C(C)C)nc(C(C)C)c(/C=C/[C@@H](O)C[C@@H](O)CC(=O)O)c1-c1ccc(F)cc1` [CERIVASTATIN], the IC50 entry is given as “Not Active”.
Consider CISPLATIN, for which the IC50 result is “Not Active” and the Ki entry is “Not Active”.
Regarding `CN1CCC[C@H]1c1cccnc1` [NICOTINE], the IC50 result is on record as “Not Active”.
For `Oc1c(Cl)cc(Cl)cc1Sc1cc(Cl)cc(Cl)c1O` [BITHIONOL], the IC50 entry is “Not Active”.

The next assay addresses Vascular endothelial growth factor receptor 1 (Homo sapiens, UniProt P17948). Format: cell-based. The settings on record: huvec.
As for `COCc1c(C(C)C)nc(C(C)C)c(/C=C/[C@@H](O)C[C@@H](O)CC(=O)O)c1-c1ccc(F)cc1` [CERIVASTATIN], the IC50 result is recorded as “Not Active”.
In the case of CISPLATIN, the IC50 entry is listed as “Not Active” and the Ki entry is “Not Active”.
With `CN1CCC[C@H]1c1cccnc1` [NICOTINE], the 50% inhibitory concentration (IC50) result is recorded as “Not Active”.
With `Oc1c(Cl)cc(Cl)cc1Sc1cc(Cl)cc(Cl)c1O` [BITHIONOL], the IC50 entry is given as “Not Active”.

System in another assay: not listed separately
In words: DRUGMATRIX: Serotonin (5-Hydroxytryptamine) 5-HT3 radioligand binding (ligand: [3H] GR-65630). It counts as cell membranes, Membrane. The settings on record: hek293; Not Active = under 50% inhibition at 10 µM.
As for `COCc1c(C(C)C)nc(C(C)C)c(/C=C/[C@@H](O)C[C@@H](O)CC(=O)O)c1-c1ccc(F)cc1` [CERIVASTATIN], the IC50 result is recorded as “Not Active” and the Ki entry is on record as “Not Active”.
Consider CISPLATIN, for which the IC50 result is “Not Active” and the Ki result is listed as “Not Active”.
Regarding `CN1CCC[C@H]1c1cccnc1` [NICOTINE], the IC50 result was “Not Active” and the Ki entry was “Not Active”.
Take `Oc1c(Cl)cc(Cl)cc1Sc1cc(Cl)cc(Cl)c1O` [BITHIONOL]: the IC50 result is listed as “Not Active” and the Ki entry is listed as “Not Active”.

The target of the next assay is Sigma non-opioid intracellular receptor 1 (Homo sapiens, UniProt Q99720). The experiment in a line: DRUGMATRIX: Sigma1 radioligand binding (ligand: [3H] Haloperidol). Format: cell membranes, Jurkat, Membrane. The settings on record: jurkat; Not Active = under 50% inhibition at 10 µM.
For the compound `COCc1c(C(C)C)nc(C(C)C)c(/C=C/[C@@H](O)C[C@@H](O)CC(=O)O)c1-c1ccc(F)cc1` [CERIVASTATIN], the IC50 entry is given as “Not Active”.
Turning to CISPLATIN, the IC50 entry is recorded as “Not Active” and the Ki result is “Not Active”.
For the compound `CN1CCC[C@H]1c1cccnc1` [NICOTINE], the IC50 entry is given as “Not Active”.
As to `Oc1c(Cl)cc(Cl)cc1Sc1cc(Cl)cc(Cl)c1O` [BITHIONOL], the IC50 result is reported as “Not Active”.

Another assay deals with Delta-type opioid receptor (Homo sapiens, UniProt P41143). Format: cell membranes, HEK293, Membrane. The settings on record: hek293.
Sequence of Delta-type opioid receptor (P41143 whole entry): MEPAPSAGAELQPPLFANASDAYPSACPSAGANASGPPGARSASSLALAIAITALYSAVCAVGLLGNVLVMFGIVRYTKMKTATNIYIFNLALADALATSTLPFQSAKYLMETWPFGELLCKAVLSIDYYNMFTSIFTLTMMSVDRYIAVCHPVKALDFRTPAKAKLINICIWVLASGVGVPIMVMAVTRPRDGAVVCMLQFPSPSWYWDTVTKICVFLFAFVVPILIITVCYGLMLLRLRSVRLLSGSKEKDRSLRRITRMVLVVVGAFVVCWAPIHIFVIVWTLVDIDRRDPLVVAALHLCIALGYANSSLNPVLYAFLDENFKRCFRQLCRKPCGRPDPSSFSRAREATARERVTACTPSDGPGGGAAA
Consider `COCc1c(C(C)C)nc(C(C)C)c(/C=C/[C@@H](O)C[C@@H](O)CC(=O)O)c1-c1ccc(F)cc1` [CERIVASTATIN], for which the IC50 entry is on record as “Not Active”.
On to CISPLATIN, for which the IC50 result is given as “Not Active” and the Ki entry was “Not Active”.
`CN1CCC[C@H]1c1cccnc1` [NICOTINE]: the IC50 result is given as “Not Active”.
For the compound `Oc1c(Cl)cc(Cl)cc1Sc1cc(Cl)cc(Cl)c1O` [BITHIONOL], the IC50 entry is listed as “Not Active”.

Another assay has as its target T2, Muscarinic acetylcholine receptor M4 (Homo sapiens, UniProt P08173). Further: in other assays of this panel Not Active means under 50% inhibition at 10 µM.
T2 sequence (P08173 whole entry): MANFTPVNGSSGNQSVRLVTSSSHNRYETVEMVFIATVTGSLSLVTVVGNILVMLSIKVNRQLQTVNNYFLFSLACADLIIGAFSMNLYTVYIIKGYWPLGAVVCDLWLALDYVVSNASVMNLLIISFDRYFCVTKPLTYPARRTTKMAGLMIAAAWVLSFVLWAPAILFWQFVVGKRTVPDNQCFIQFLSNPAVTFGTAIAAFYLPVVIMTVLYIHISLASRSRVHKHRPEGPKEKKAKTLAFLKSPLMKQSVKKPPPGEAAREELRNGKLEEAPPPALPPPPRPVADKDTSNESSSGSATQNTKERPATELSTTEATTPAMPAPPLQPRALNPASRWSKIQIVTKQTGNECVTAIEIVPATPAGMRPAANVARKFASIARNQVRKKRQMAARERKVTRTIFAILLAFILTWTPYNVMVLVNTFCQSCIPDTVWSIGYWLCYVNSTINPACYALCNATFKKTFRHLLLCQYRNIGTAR
Format: cell membranes, CHO-K1, Membrane. The settings on record: cho-k1.
For `COCc1c(C(C)C)nc(C(C)C)c(/C=C/[C@@H](O)C[C@@H](O)CC(=O)O)c1-c1ccc(F)cc1` [CERIVASTATIN], the IC50 entry was “Not Active”.
For the compound CISPLATIN, the IC50 entry was “Not Active” and the Ki entry was “Not Active”.
As to `CN1CCC[C@H]1c1cccnc1` [NICOTINE], the IC50 entry is “Not Active”.
Turning to `Oc1c(Cl)cc(Cl)cc1Sc1cc(Cl)cc(Cl)c1O` [BITHIONOL], the IC50 entry is reported as “Not Active”.

Another assay has as its target Mitogen-activated protein kinase 14 (Homo sapiens, UniProt Q16539). Further details: species or system Escherichia coli.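 Further: inhibition of p38alpha enzyme activity in a biochemical kinase assay, with myelin basic protein serving as substrate; in other assays of this panel Not Active means under 50% inhibition at 10 µM.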
Settings: not given
Consider `COCc1c(C(C)C)nc(C(C)C)c(/C=C/[C@@H](O)C[C@@H](O)CC(=O)O)c1-c1ccc(F)cc1` [CERIVASTATIN], for which the IC50 entry is on record as “Not Active”.
As for CISPLATIN, the IC50 result is reported as “Not Active” and the Ki entry was “Not Active”.
Turning to `CN1CCC[C@H]1c1cccnc1` [NICOTINE], the IC50 result is reported as “Not Active”.

Staying with this assay, now noted: read-out: IC50.
Take `Oc1c(Cl)cc(Cl)cc1Sc1cc(Cl)cc(Cl)c1O` [BITHIONOL]: the IC50 was determined as 318 nM.

The target of the next assay is T3, B2 bradykinin receptor (Homo sapiens, UniProt P30411). Further: in other assays of this panel Not Active means under 50% inhibition at 10 µM.
T3 sequence (P30411 whole entry): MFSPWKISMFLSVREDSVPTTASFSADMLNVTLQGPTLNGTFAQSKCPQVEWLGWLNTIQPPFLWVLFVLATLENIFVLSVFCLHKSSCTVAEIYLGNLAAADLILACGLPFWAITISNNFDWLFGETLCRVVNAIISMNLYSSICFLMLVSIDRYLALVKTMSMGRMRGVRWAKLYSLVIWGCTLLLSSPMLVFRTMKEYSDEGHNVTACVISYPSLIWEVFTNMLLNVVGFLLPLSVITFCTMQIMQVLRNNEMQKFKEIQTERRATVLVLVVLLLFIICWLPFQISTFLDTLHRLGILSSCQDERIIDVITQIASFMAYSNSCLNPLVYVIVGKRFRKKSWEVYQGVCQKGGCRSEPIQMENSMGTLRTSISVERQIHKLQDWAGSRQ
Format: cell membranes, Membrane. The settings on record: chem-1.
With `COCc1c(C(C)C)nc(C(C)C)c(/C=C/[C@@H](O)C[C@@H](O)CC(=O)O)c1-c1ccc(F)cc1` [CERIVASTATIN], the IC50 entry is recorded as “Not Active”.
On to CISPLATIN, for which the IC50 result is reported as “Not Active” and the Ki entry is recorded as “Not Active”.
Turning to `CN1CCC[C@H]1c1cccnc1` [NICOTINE], the IC50 result is reported as “Not Active”.
Consider `Oc1c(Cl)cc(Cl)cc1Sc1cc(Cl)cc(Cl)c1O` [BITHIONOL], for which the IC50 result is on record as “Not Active”.

The target in another assay is T4, Alpha-1A adrenergic receptor (Rattus norvegicus, UniProt P43140).
T4 sequence (P43140 whole entry): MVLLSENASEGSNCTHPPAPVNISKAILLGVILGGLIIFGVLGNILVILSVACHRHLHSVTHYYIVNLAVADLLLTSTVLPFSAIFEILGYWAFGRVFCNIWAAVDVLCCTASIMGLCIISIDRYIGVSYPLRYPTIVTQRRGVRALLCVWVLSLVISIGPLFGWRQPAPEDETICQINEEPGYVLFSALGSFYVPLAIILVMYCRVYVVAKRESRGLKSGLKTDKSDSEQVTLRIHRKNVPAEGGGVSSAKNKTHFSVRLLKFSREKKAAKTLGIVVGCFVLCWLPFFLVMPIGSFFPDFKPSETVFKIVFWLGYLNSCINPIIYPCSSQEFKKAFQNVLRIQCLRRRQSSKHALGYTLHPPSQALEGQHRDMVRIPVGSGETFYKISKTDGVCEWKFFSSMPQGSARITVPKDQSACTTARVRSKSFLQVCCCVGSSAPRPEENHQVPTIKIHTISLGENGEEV
In words: DRUGMATRIX: Alpha-1A adrenergic receptor radioligand binding (ligand: prazosin). It counts as cell membranes, Wistar, Submaxillary gland, Membrane. The settings on record: Not Active = under 50% inhibition at 10 µM.
Consider `COCc1c(C(C)C)nc(C(C)C)c(/C=C/[C@@H](O)C[C@@H](O)CC(=O)O)c1-c1ccc(F)cc1` [CERIVASTATIN], for which the IC50 result is recorded as “Not Active”.
On to CISPLATIN, for which the IC50 entry is “Not Active” and the Ki entry is recorded as “Not Active”.
For `CN1CCC[C@H]1c1cccnc1` [NICOTINE], the IC50 entry is “Not Active”.
Turning to `Oc1c(Cl)cc(Cl)cc1Sc1cc(Cl)cc(Cl)c1O` [BITHIONOL], the IC50 result was “Not Active”.

By IC50 is commonly meant the concentration needed to halve the response being measured.

Values taken from ChEMBL document CHEMBL1909046, “DrugMatrix in vitro pharmacology data”.
